The values below come from patent US20200009176A1, “TREATMENT OF LEUKEMIA VIA THE ADMINISTRATION OF DOT1L INHIBITOR PINOMETOSTAT” (Epizyme, Inc., priority 2014, published 2020).

In data set [1] the test system is H3K79-me2 at MLL-r target genes HOXA9 and MEIS1. The data set can be described thus: Pediatric Phase 1 study: H3K79-me2 ChIP-Seq in leukemic blasts. The conditions noted are these: 2 of 2 pediatric patients analyzed. Format: in vivo, human. On the procedure:
(§1) An open label dose escalation study of pinometostat was performed in patients (pts) aged 3 months to 18 […] leukemia (NCT02141828). Pinometostat was administered via continuous intravenous infusion until disease progression or unacceptable toxicity. Patients were assigned to one of two age-based dose escalation […] developed from simulations of pediatric exposures using a previously reported physiologically-based PK (PBPK) model (Waters, 2014). All patients underwent serial collection of PK and peripheral blood mononuclear cells (PBMC) for PD. Leukemic blasts were isolated from PBMCs using flow cytometry and quantified for di-methylation of H3K79 (H3K79-me2) by ChIP-Seq.

The next data set has as its target DOT1L (Homo sapiens, UniProt Q8TEK3). The data set can be described thus: DOT1L affinity. The data set is classed as binding.
For data set [2], the system named is leukemia cell lines MOLM-13, OCI-AML4, and SKM-1. The data set can be described thus: Growth inhibition assays, pinometostat with RAS pathway inhibitors. Format: cell-based. The conditions noted are these: pinometostat 3 μM, 300 nM, 150 nM or 75 nM plus SCH772984, Trametinib or Sorafenib; FIG. 13. On the procedure:
Growth inhibition assays were performed using leukemia cell lines to determine whether there is any synergy between pinometostat and RAS pathway inhibitors. The leukemia cell lines used were MOLM-13, OCI-AML4, and SKM-1. For these studies, different RAS pathway inhibitors were used, including SCH772984 (e.g., an ERK inhibitor), Trametinib (e.g., a MEK inhibitor), and Sorafenib (e.g., a Raf kinase inhibitor).

The test system of data set [3] is MLL-rearranged cells and xenografts. Conditions: cited from earlier work.
The test system of data set [4] is H3K79-me2 at MLL-r target genes HOXA9 and MEIS1. Kind of data set: Adult Phase 1 study: H3K79-me2 ChIP-Seq in leukemic blasts. Format: in vivo, human. The conditions noted are these: 9 patients, 90 mg/m^2 expansion cohort. How it is done: (§2) This open label dose escalation/expansion study of pinometostat enrolled patients ≥18 years (yrs) with R/R leukemia (NCT01684150). In the dose-escalation phase, patients with AML, ALL, mixed lineage leukemia (MLL), myelodysplastic syndrome, myeloproliferative neoplasm or chronic myeloid leukemia were eligible. Eligibility in the two expansion cohorts: 90 mg/m^2 (n=17) and 54 mg/m^2 (n=6), was restricted to patients with MLL-r or MLL-partial tandem duplication (MLL-PTD). Pinometostat was given via continuous intravenous infusion (CIV) for 21 of 28 day cycles in the dose escalation phase and CIV for 28 of 28 day cycles in the expansion phase, until disease progression or unacceptable toxicity. All patients underwent serial collection of PK and peripheral blood mononuclear cells (PBMC) for PD. Leukemic blasts were isolated from PBMCs using flow cytometry and quantified for dimethylation of H3K79 (H3K79-me2) by ChIP-Seq.

The nature of data set [5]: Adult Phase 1 study: pharmacokinetics. Format: in vivo, human. Conditions: adults, CIV. How it is done:
as §2

For data set [6] the following is noted: Stein 2014 ASH abstract 387; cited from earlier work.
Another data set relates to MLL-rearranged cells. Kind of data set: Pre-clinical study with MLL-rearranged and non-MLL rearranged cells (FIG. 3). The conditions noted are these: MLL-rearranged vs non-MLL rearranged cells. The data set is classed as cell-based.
Data set [7] can be described thus: Adult Phase 1 dose escalation/expansion study: safety and clinical response. Format: in vivo, human. Details: key to clinical response, per patient: ▪: Complete Responder (Patient Nos. 16 and 18); ▴: Biological Effect (Leukocytosis) (Patient Nos. 1, 7, 13, 15, and 17); ●: Non-responder (Patient Nos. 2-6, 8-12, and 14). From the text:
This open label dose escalation/expansion study of pinometostat enrolled patients ≥18 years (yrs) with R/R leukemia (NCT01684150). In the dose-escalation phase, patients with AML, ALL, mixed lineage leukemia (MLL), myelodysplastic syndrome, myeloproliferative neoplasm or chronic myeloid leukemia were eligible. […] Pinometostat was given via continuous intravenous infusion (CIV) for 21 of 28 day cycles in the dose escalation phase and CIV for 28 of 28 day cycles in the expansion phase, until disease progression or unacceptable toxicity. All patients underwent serial collection of PK and peripheral blood mononuclear cells (PBMC) for PD. […] As of Jun. 28, 2015, 49 patients have enrolled in the dose escalation and expansion phases. […] Correlations of transcript abundance and DNA variants detected with categorical (responder=CR or PR [n=3], or no response [n=15]) and continuous response parameters (time on study (“TOS”), mean=59 days: range=8-196 days) were performed.

Data set [8] can be described thus: Pediatric Phase 1 study: pharmacokinetics. The data set is classed as in vivo, human. How it is done:
as §1

The test system of data set [9] is 14 cell lines (MLL-r or MLL-PTD). The data set can be described thus: Cell proliferation in 14 cell lines. Format: cell-based. On the procedure: RNA and DNA were isolated from PBMCs and/or bone marrow collected prior to treatment from 18 patients enrolled in the adult pinometostat Phase 1 study (CT.gov: NCT01684150), at the following doses 24 (n=2), 36 (n=3), 54 (n=6), 80 (n=3) and 90 mg/m^2/day doses (n=4). mRNA transcript abundance was assessed using whole genome RNASeq and DNA variants were determined using a 194 gene panel, MyAML (Genection Inc.). Correlations of transcript abundance and DNA variants detected with categorical (responder=CR or PR [n=3], or no response [n=15]) and continuous response parameters (time on study (“TOS”), mean=59 days: range=8-196 days) were performed. For cell lines, whole genome RNASeq data was generated from 14 cell lines (MLL-r or MLL-PTD) with a range of in vitro sensitivity to pinometostat (cell proliferation IC50 2 nM to >10 μM) and RNA transcripts identified as correlated with IC5o were submitted for pathway analysis.

A short description of data set [10]: Pediatric Phase 1 study: safety. The data set is classed as in vivo, human. The conditions noted are these: children with R/R leukemia. How it is done: as §1, with “ChIP-Seq. As of Jun. 28, 2015, 11 patients have enrolled in the dose escalation of the study consisting of 10 patients (6 patients at 70 mg/m^2/day, 4 patients at 90 mg/m^2/day) in the older age cohort (1 to 18 yr) and 1 patient (45 mg/m^2/day) in the younger age cohort (<1 yr).” for “ChIP-Seq.”

The mark [11] stands for this setting: 18 adult patients of biomarker analysis.
Where [12] appears, read: dose level 24 mg/m^2, listed as pinometostat.
The mark [13] stands for this setting: dose level 36 mg/m^2, listed as pinometostat.
Setting [14] is: dose level 54 mg/m^2, listed as pinometostat.
Where [15] appears, read: dose level 90 mg/m^2, listed as pinometostat.

SMILES strings stand for the structures. Values joined by “and” are separate entries in the source; they are usually repeats but may differ in a detail not shown here. Identical values can stand only once. “Also recorded” adds a separate entry of the source. Like-named read-outs stand apart in the source and are kept apart here.

Sequence of DOT1L (Q8TEK3 whole entry): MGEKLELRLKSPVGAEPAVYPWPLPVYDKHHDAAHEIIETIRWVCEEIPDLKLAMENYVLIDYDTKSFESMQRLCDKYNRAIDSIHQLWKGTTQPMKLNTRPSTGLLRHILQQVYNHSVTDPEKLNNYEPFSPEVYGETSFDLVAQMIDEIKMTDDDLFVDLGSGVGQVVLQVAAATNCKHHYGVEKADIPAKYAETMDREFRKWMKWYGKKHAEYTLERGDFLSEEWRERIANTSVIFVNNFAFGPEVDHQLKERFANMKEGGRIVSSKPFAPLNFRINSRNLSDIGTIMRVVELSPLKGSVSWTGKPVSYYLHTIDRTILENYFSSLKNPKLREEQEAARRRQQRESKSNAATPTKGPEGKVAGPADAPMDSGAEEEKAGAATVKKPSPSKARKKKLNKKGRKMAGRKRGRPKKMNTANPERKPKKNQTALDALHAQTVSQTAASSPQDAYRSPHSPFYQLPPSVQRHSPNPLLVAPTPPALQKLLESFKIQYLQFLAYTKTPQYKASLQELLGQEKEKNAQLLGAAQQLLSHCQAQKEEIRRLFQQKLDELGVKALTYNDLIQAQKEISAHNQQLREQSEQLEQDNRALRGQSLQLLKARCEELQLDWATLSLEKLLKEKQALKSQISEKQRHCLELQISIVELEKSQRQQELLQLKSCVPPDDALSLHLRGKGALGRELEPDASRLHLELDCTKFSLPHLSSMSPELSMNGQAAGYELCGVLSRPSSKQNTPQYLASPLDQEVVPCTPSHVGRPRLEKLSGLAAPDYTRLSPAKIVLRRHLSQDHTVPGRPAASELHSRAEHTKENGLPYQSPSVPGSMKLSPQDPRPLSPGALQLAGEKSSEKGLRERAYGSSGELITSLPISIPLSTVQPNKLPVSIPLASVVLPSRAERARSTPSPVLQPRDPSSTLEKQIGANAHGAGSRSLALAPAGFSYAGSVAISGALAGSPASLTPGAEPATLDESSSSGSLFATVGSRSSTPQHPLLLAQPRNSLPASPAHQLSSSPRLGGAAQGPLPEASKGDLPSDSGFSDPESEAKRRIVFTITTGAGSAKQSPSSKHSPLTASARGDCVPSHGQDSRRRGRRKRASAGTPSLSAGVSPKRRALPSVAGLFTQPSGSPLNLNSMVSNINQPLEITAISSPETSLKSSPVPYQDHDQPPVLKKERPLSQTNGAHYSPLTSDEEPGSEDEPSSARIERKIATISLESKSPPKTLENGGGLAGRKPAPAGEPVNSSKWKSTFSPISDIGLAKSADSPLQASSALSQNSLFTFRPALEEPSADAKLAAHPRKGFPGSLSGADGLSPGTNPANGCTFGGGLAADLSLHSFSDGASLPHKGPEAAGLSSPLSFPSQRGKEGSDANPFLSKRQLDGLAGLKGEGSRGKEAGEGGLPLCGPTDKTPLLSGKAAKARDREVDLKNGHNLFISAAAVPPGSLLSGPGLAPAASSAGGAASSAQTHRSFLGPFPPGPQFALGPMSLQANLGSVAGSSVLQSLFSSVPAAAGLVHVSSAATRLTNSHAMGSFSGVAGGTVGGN

As for `CC(C)N(C[C@H]1O[C@@H](n2cnc3c(N)ncnc32)[C@H](O)[C@@H]1O)[C@H]1C[C@@H](CCc2nc3cc(C(C)(C)C)ccc3[nH]2)C1` [Compound A2, (2R,3R,4S,5R)-2-(6-amino-9H-purin-9-yl)-5-((((1r,3S)-3-(2-(5-(tert-butyl)-1H-benzo[d]imidazol-2yl)ethyl)cyclobutyl)(isopropyl)amino)methyl)tetrahydrofuran-3,4-diol], the “range of inhibition of H3K79-me2 methylation at HOXA9 and MEIS1” value in [1] is 44-72%; in [4], 13- 91%. For the same compound, at DOT1L, the “affinity for DOT1L” value was “sub-nanomolar”. In addition, the “effect on inhibition of cell growth, combination of RAS pathway inhibitor and pinometostat” value (“effect on inhibition of cell growth” for short) in data set [2] was “synergistic effect; also recorded: synergistic cell killing”. Also, the “MLL target gene expression” value in [3] is on record as “decreased”. Besides, the “histone H3K79 methylation” value in data set [3] is “reduced”. Also, the leukemia cell kill result in data set [3] (listed as Pinometostat) is given as “induced selective leukemia cell kill”; in [3] (listed as pinometostat), “selective leukemia cell kill”. In data set [4], the “median inhibition of H3K79-me2 methylation at HOXA9 and MEIS1” value was 61%. Further, in data set [5], the “attainment of steady-state plasma concentrations (Css)” value was “Day 1”. Moreover, the “dose proportionality of PK” value in [5] was “Dose proportional PK”. The “clinical activity, preliminary results of the adult trial” value in data set [6] is given as “complete remissions in a subset of patients”. In addition, the “killing of genetically defined cancer cells” value in the data set with MLL-rearranged cells is reported as “selective killing”. Besides, the “time on study (TOS), mean” value in data set [7] (setting [11]) amounted to 59 days. Also, the “time on study (TOS), range” value in data set [7] (setting [11]) is 8 to 196 days. The safety profile entry is “acceptable safety profile” in data set [7] (CIV, adults with R/R leukemia) and “acceptable safety profile” in data set [10]. Moreover, the “differentiation effect in patients with MLL-r” value in [7] (FIG. 8, micrographs of blood and bone marrow) is given as “leads to a differentiation effect”. In addition, the drug-related treatment discontinuations entry in data set [7] (adult MLL-r and MLL-PTD, 90 mg/m^2/day uninterrupted, expansion stage) is listed as “no drug-related treatment discontinuations”. In addition, the “objective response: PR” value in [7] (adults, 49 patients) amounted to 1 pt. The “objective response: cytogenetic CR (MLL negative by FISH)” value in data set [7] (adults, 49 patients) is listed as 1 pt. In addition, in [7] (adults, 49 patients), the “objective response: morphologic CR” value was determined as 1 pt. Moreover, in [7] (adults, 49 patients), the “resolution of leukemia cutis” value is on record as 3 pts. In data set [7] (adults, absolute monocyte and neutrophil 50% above baseline and above upper limit of normal), the “patients with leukocytosis or differentiation” value is given as “Nine”. Moreover, the “Time on Study, per patient” value in [7] (setting [12]) is 49 days and 8 days; in [7] (setting [13]) it was 33 days and 65 days and 21 days; in data set [7] (setting [14]) it was 49 days and 110 days and 196 days and 21 days; in [7] (dose level 80 mg/m^2, listed as pinometostat), 41 days and 82 days; in [7] (setting [15]) it was 31 days and 38 days and 50 days and 86 days and 136 days and 15 days and 28 days. In addition, the “clinical response, per patient” value in data set [7] (setting [12]) is “● and ▴”; in data set [7] (setting [13]), “▴ (2×) and ●”; in data set [7] (setting [14]), “● (2×) and ▪ (2×)”; in data set [7] (dose level 80 mg/m^2), “●”; in data set [7] (setting [15]), “● (5×) and ▴ (2×)”. Moreover, in data set [8] (children), the “Steady-state CSF concentrations” value is on record as below 2 ng/mL. Moreover, the “Steady-state plasma concentrations (Css)” value in [8] (children ≥1 yr, 70 and 90 mg/m^2 doses) lay within 800 to 1600 ng/mL. Moreover, the IC50 was above 10000 nM in [9] (least sensitive of 14 cell lines, read-out: cell proliferation IC50, upper end of range) and 2 nM in data set [9] (most sensitive of 14 cell lines, read-out: cell proliferation IC50, lower end of range).
With `O=C(Nc1ccc2[nH]nc(-c3ccncc3)c2c1)[C@@H]1CCN(CC(=O)N2CCN(c3ccc(-c4ncccn4)cc3)CC2)C1` [SCH772984, reference compound], the “effect on inhibition of cell growth” value in data set [2] is “synergistic effect”.
For `CNC(=O)c1cc(Oc2ccc(NC(=O)Nc3ccc(Cl)c(C(F)(F)F)c3)cc2)ccn1` [Sorafenib, reference compound], in data set [2], the “effect on inhibition of cell growth” value is recorded as “synergistic effect”.
